Test results reported in patent publication US4226879A, “Antibiotic composition” (Kyowa Hakko Kogyo Kabushiki Kaisha, priority 1976, dated 1980).
In brackets after ≈: the same amount, converted by molar mass.

How the values were obtained:
Aspergillus niger = assay: MIC, agar dilution method; type: cell-based; settings: pH 6.8, 27° C. 72 hours
Eimeria acervulina = assay: anticoccidial activity; type: in vivo
B. cereus T = assay: MIC, agar dilution method; type: cell-based
[1] = test system: Proteus vulgaris IFO 3163; assay: MIC, agar dilution method; type: cell-based; settings: IFO3163, pH 7.0, 37° C., 18 hours
Sacchromyces cerevisiae = assay: MIC, agar dilution method; type: cell-based; settings: pH 6.8, 27° C. 72 hours
[2] = test system: S. aureus KB-64 (tetracycline & erythromycin-resistant); assay: MIC, agar dilution method; type: cell-based; settings: Staphylococcus aureus; pH 7.0, 37° C., 18 hours
Eimeria maxima = assay: anticoccidial activity; type: in vivo
B. megaterium APF = assay: MIC, agar dilution method; type: cell-based; settings: Priestia megaterium; pH 7.0, 37° C., 18 hours
Xanthomonas oryzae = assay: microbe, parasite or virus in culture; type: cell-based; settings: 72 h, pH 6.8
[3] = test system: Klebsiella pneumoniae PCI 602; assay: MIC, agar dilution method; type: cell-based; settings: PCI602, pH 7.0, 37° C., 18 hours
[4] = solubility in various solvents; type: physicochemical
fungi = assay: antifungal activity, agar dilution method; type: cell-based; settings: at a concentration below 100 mcg/ml
From the text: (§1) Table 1 indicates the antibacterial and antifungal activity of AM-1042 as minimum inhibitory concentration (mcg/ml) determined by the agar dilution method.
**Potato extract containing glucose 1.0% and agar 1.2% (pH 6.8),

Botrytis cinerea = assay: MIC, agar dilution method; type: cell-based; settings: pH 6.8, 27° C. 72 hours
Micrococcus flavus 16 = assay: MIC, agar dilution method; type: cell-based; settings: pH 7.0, 37° C., 18 hours
Nocardia asteroides = assay: MIC, agar dilution method; type: cell-based
Staphylococcus aureus = assay: antibacterial activity; type: cell-based
Gram-negative bacteria = assay: growth inhibition, agar dilution method; type: cell-based; settings: at concentration below 100 mcg/ml
Method: as §1
*Peptone 0.5%; meat extract 0.5%; agar 1.2% (pH 7.0), 37° C., 18

[5] = test system: Aerobacter aerogenes IAM 1183; assay: MIC, agar dilution method; type: cell-based; settings: Klebsiella aerogenes, IAM1183; pH 7.0, 37° C., 18 hours
Piricularia oryzae = assay: microbe, parasite or virus in culture; type: cell-based; settings: 72 h, pH 6.8
[6] = test system: Mycobacterium smegmatis ATCC 607; assay: MIC, agar dilution method; type: cell-based; settings: Mycolicibacterium smegmatis, ATCC607; pH 7.0, 37° C., 18 hours

O=C(/C=C/C=C/C=C/C1CCCCC1)NC1=CC(O)(/C=C/C=C/C=C/C(=O)NC2=C(O)CCC2=O)C2OC2C1=O (centres unmarked) [AM-1042]
MIC (Aspergillus niger): > 100 mg/L
activity upon coccidiosis (Eimeria acervulina): significantly active
activity upon Bacillus cereus (B. cereus T): active
MIC (B. cereus T; Bacillus cereus, pH 7.0, 37° C., 18 hours): 3.1 mg/L (≈ 5.67 µM)
MIC [1]: > 100 mg/L
MIC (Sacchromyces cerevisiae): > 100 mg/L
MIC [2]: 6.2 mg/L (≈ 11.3 µM)
activity upon coccidiosis (Eimeria maxima): significantly active
MIC (B. megaterium APF): 6.2 mg/L (≈ 11.3 µM)
MIC (Xanthomonas oryzae): > 100 mg/L
MIC [3]: > 100 mg/L
solubility ([4]; in acetone): Soluble
solubility ([4]; in chloroform): Soluble
solubility ([4]; in dimethylformamide): Easily soluble
solubility ([4]; in dimethylsulfoxide): Easily soluble
solubility ([4]; in ethanol): Soluble
solubility ([4]; in ethyl acetate): Soluble
solubility ([4]; in fat): soluble in fat
solubility ([4]; in methanol): Soluble
solubility ([4]; in n-hexane): Insoluble
solubility ([4]; in petroleum ether): Insoluble
solubility ([4]; in water): Insoluble
activity on fungi (fungi): no significant activity
MIC (Botrytis cinerea): > 100 mg/L
MIC (Micrococcus flavus 16): 1.5 mg/L (≈ 2.74 µM)
activity upon Nocarida asteroides (Nocardia asteroides): active
MIC (Nocardia asteroides; Nocardia asteroides, pH 7.0, 37° C., 18 hours): 1.56 mg/L (≈ 2.85 µM)
activity upon Staphylococcus aureus (Staphylococcus aureus): active
effect on Gram-negative bacteria (Gram-negative bacteria): no significant effect
MIC [5]: 100 mg/L (≈ 183 µM)
MIC (Piricularia oryzae): 100 mg/L (≈ 183 µM)
MIC [6]: > 100 mg/L
